Test results as given in publication PMC12064818, “A general assay platform to study protein pharmacology using ligand-dependent structural dynamics” (Nature Communications, 2025).

Target: T1, FLuc-C-HiBiT (Photinus pyralis, UniProt P08659)
T1 construct: firefly luciferase with C-terminal HiBiT tag, E. coli expressed
Assay: biochemical
Settings: enzyme activity, 10 uM ATP; read-out: IC50 or SDR50 (mM) / FLuc E

T1 sequence (P08659 whole entry, looked up): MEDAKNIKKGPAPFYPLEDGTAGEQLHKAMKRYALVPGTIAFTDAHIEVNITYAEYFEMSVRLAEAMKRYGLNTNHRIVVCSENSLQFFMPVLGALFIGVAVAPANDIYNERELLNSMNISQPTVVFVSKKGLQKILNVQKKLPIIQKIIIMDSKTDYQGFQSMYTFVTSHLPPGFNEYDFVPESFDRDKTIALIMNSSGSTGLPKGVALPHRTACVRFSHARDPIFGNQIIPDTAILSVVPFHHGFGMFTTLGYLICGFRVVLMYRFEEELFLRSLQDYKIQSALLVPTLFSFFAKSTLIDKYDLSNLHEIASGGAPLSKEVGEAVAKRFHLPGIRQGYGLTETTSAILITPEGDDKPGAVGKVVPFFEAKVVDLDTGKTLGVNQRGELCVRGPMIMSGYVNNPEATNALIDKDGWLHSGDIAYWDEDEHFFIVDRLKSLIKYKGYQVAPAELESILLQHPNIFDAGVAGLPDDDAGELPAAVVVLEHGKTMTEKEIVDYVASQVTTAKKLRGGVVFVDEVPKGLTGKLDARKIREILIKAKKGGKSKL

IC50 [mM]	SMILES
0.000197	O=C(Nc1ccc2c(c1)OCO2)c1cccc2c1CCN2C(=O)Nc1ccc(F)cc1 [NCGC00430184-01]
0.00624	CC(=O)N1CCc2ccc(C(=O)NC3CCCCCC3)cc21 [NCGC00430256-01]
0.0111	CCC(=O)N1CCc2ccc(C(=O)NC3CCCCC3)cc21 [NCGC00430262-01]
> 0.03	Cc1nc(CN2CCOc3c(O)cc(-c4nc5ccccc5s4)cc3C2)no1 [NCGC00430265-01]
0.00556	COc1ccc(C(=O)N2CCc3ccc(C(=O)Nc4ccc5c(c4)OCCO5)cc32)cc1 [NCGC00430278-01]
> 0.03	COc1cccc(CN2CCc3c(cc(C(=O)Nc4cc(C)ccc4OC)n3C)C2)c1 [NCGC00430592-01]
0.00989	COc1ccc2cc(C3CN(C(=O)CCc4n[nH]c(C)n4)CCO3)ccc2c1 (centres unmarked) [NCGC00430617-01]
0.0124	COc1ccc2cc(C3CN(C(=O)CNC(=O)C(C)C)CCO3)ccc2c1 (centres unmarked) [NCGC00430625-01]
> 0.03	Cn1c(C(=O)Nc2ccc3c(c2)OCO3)cc2c1CCN(Cc1cccc(F)c1)C2 [NCGC00430636-01]
0.0111	Cc1ccc(NC(=O)Nc2ccccc2)c(=O)n1CC(=O)NCC1CCCO1 (centres unmarked) [NCGC00430764-01]
0.00495	CCN1CCN(C(=O)Cn2c(C)ccc(NC(=O)Nc3ccc(C)cc3)c2=O)CC1 [NCGC00430774-01]
0.0007	COc1ccccc1NC(=O)Cn1c(C)ccc(NC(=O)Nc2ccc(C)cc2)c1=O [NCGC00430778-01]
0.00124	CCC(C)NC(=O)Cn1c(C)ccc(NC(=O)Nc2ccc(C)cc2)c1=O (centres unmarked) [NCGC00430780-01]
0.00394	Cc1ccc(NC(=O)Nc2ccc(C)n(CC(=O)NC(C)(C)C)c2=O)cc1 [NCGC00430790-01]
0.0007	Cc1ccc(NC(=O)Nc2ccc(C)n(CC(=O)NC3CCCC3)c2=O)cc1 [NCGC00430792-01]
0.00111	Cc1ccc(NC(=O)Nc2ccc(C)n(CC(=O)NCCC(C)C)c2=O)cc1 [NCGC00430794-01]
0.00111	Cc1ccc(NC(=O)Nc2ccc(C)n(CC(=O)NCC(C)C)c2=O)cc1 [NCGC00430796-01]
0.00394	Cc1ccc(NC(=O)Nc2ccc(C)n(CC(=O)N3CCC(C)CC3)c2=O)cc1 [NCGC00430800-01]
0.00157	Cc1ccc(NC(=O)Nc2ccc(C)n(CC(=O)NC(C)c3cccnc3)c2=O)cc1 (centres unmarked) [NCGC00430804-01]
0.0111	Cc1ccc(NC(=O)Nc2ccc(C)n(CC(=O)NCCN3CCCC3)c2=O)cc1 [NCGC00430806-01]
0.00495	CC(C)n1cc(-c2cc(C(=O)N3CCC(C)(C)C3)c3ccc(F)cc3n2)cn1 [NCGC00430819-01]

IC50 [mM]	SMILES
0.00624	CCCNC(=O)Cn1c(C)ccc(NC(=O)Nc2ccc(OC)cc2)c1=O [NCGC00430826-01]
0.00989	COc1ccc(NC(=O)Nc2ccc(C)n(CC(=O)N3CCCCCC3)c2=O)cc1 [NCGC00430834-01]
0.00351	COc1ccc(NC(=O)Nc2ccc(C)n(CC(=O)NCC(C)C)c2=O)cc1 [NCGC00430836-01]
0.00785	COc1ccc(NC(=O)Nc2ccc(C)n(CC(=O)N3CCCC(C)C3)c2=O)cc1 (centres unmarked) [NCGC00430838-01]
0.00989	COc1ccc2cc(C3CN(C(=O)Cc4ccc(O)cc4)CCO3)ccc2c1 (centres unmarked) [NCGC00430869-01]
0.0124	CCn1ncc(NC(=O)Cn2ncc3cc(-c4ccc(C)cc4F)ccc32)n1 [NCGC00430893-01]
0.00556	CCN(CC)C(=O)N1CCOC(c2ccc3cc(OC)ccc3c2)C1 (centres unmarked) [NCGC00431059-01]
> 0.03	O=C(c1n[nH]cc1Cl)N1CCOC(Cc2cccc(C(F)(F)F)c2)C1 (centres unmarked) [NCGC00431816-01]
0.007	CC(C)(C)n1cc(-c2cc(C(=O)N3C[C@H]4CC[C@H]3C4)c3ccccc3n2)cn1 [NCGC00432050-01]
0.0111	Nc1ccc(C(=O)N2CCCn3nc(C(=O)Nc4ccccc4)cc3C2)cn1 [NCGC00432306-01]
0.0124	COc1cc(NC(=O)c2ccc(-c3ncn[nH]3)cc2)ccc1NC(=O)C(C)(C)C [NCGC00432557-01]
> 0.03	O=C(O)C1(CCc2ccccc2)CCCN(c2ncnc3[nH]cnc23)C1 (centres unmarked) [NCGC00432626-01]
> 0.03	CCn1cc(-c2ccc(F)cc2)cc1C(=O)O [NCGC00432651-01]
> 0.03	CCn1cc(-c2ccc(Cl)cc2)cc1C(=O)O [NCGC00432653-01]
> 0.03	CCn1cc(-c2ccc(C)cc2)cc1C(=O)O [NCGC00432661-01]
> 0.03	Cn1cc(-c2ccc(Cl)cc2)cc1C(=O)O [NCGC00432667-01]
0.00989	Cc1ccc(-c2cc(C(=O)O)n(C)c2)cc1 [NCGC00432669-01]
0.014	CCn1cc(-c2ccc(OC)cc2)cc1C(=O)O [NCGC00432677-01]
0.00248	O=C(O)c1ccc(-c2ccc(N3CCCCCC3)nc2)cc1 [NCGC00432679-01]
0.0111	O=C(O)c1ccc(-c2nnc3ccc(NC(=O)C4CCC4)cn23)cc1 [NCGC00432681-01]
0.00624	CN1CCN(c2ccc(-c3cccc(N)c3)nn2)CC1 [NCGC00432705-01]

IC50 [mM]	SMILES
0.00989	CCN1CCN(c2ccc(-c3cccc(N)c3)nn2)CC1 [NCGC00432707-01]
0.000556	Nc1cccc(-c2ccc(N3CCCCC3)nn2)c1 [NCGC00432709-01]
0.00197	Cc1ccc(N2CCN(c3nc(C(=O)O)cs3)CC2)cc1 [NCGC00432723-01]
0.00989	COc1ccc(NC(=O)Nc2ccc(C)n(CC(=O)O)c2=O)cc1 [NCGC00432735-01]
0.0111	COc1ccc2cc(C3CN(C(=O)c4cccc(CO)n4)CCO3)ccc2c1 (centres unmarked) [NCGC00432736-01]
> 0.03	Cc1ccc(Cn2cc(-c3ccncc3)cc2C(=O)O)cc1 [NCGC00432741-01]
0.00881	O=C(O)C1CCc2nc(N3CCN(C(=O)C4CCC4)CC3)sc2C1 (centres unmarked) [NCGC00432759-01]
0.0111	CCC(=O)N1CCN(c2nc3c(s2)CC(C(=O)O)CC3)CC1 (centres unmarked) [NCGC00432761-01]
0.014	CC1CCN(C(=O)c2cc3c(s2)CCC(C(=O)O)C3)CC1 (centres unmarked) [NCGC00432771-01]
0.00313	O=C(O)CCC1CCN(c2cc(NC3CC3)ncn2)CC1 [NCGC00432803-01]
0.00785	CCCNc1cc(N2CCC(CCC(=O)O)CC2)ncn1 [NCGC00432805-01]
0.00556	CCNc1cc(N2CCC(CCC(=O)O)CC2)ncn1 [NCGC00432807-01]
0.0014	CCN(CC)c1cc(CCC(=O)O)ccn1 [NCGC00432823-01]
0.00197	Cc1cc(NC(=O)c2ccc(CN3CC[C@H](O)C3)cc2)ccc1F [NCGC00432832-01]
0.00197	O=C(Nc1cnc(-c2ccccc2)nc1)C1CCCCC1 [NCGC00432861-01]
0.00248	O=C(Nc1cnc(-c2ccccc2)nc1)C1CCCC1 [NCGC00432867-01]
0.00197	Cc1ccc(-c2ncc(NC(=O)c3ccccc3F)cn2)cc1 [NCGC00432887-01]
0.00881	CCC(=O)Nc1cnc(-c2ccc(C)cc2)nc1 [NCGC00432895-01]
0.00351	CCCC(=O)Nc1cnc(-c2ccc(C)cc2)nc1 [NCGC00432897-01]
0.00124	O=C(Nc1cnc(-c2ccc(Cl)cc2)nc1)C1CCC1 [NCGC00432903-01]
> 0.03	Oc1cc(-c2nc3ccccc3s2)cc2c1OCCN(Cc1ncccn1)C2 [NCGC00432964-01]

IC50 [mM]	SMILES
0.0124	COc1cc(C)ccc1OCc1cc(C(=O)NCc2n[nH]c3c2CCC3)no1 [NCGC00433000-01]
0.0124	CCN(CC1CCOCC1)C(=O)c1cccnc1SC/C=C/c1ccccc1 [NCGC00433298-01]
0.000785	CCn1ncc(NC(=O)Cn2ncc3cc(-c4ccc(N(C)C)cc4)ccc32)n1 [NCGC00433406-01]
> 0.03	Cc1cncc(C(=O)N2CCOc3c(O)cc(-c4nc5ccccc5s4)cc3C2)c1 [NCGC00433624-01]
0.0157	COC(=O)[C@@H]1C[C@H](NC(=O)c2ccc(Oc3ccccc3)cc2)CN1C [NCGC00433761-01]
0.014	O=C1C[C@H]2CC[C@@H](CN1)N2Cc1ccc(OCc2ccccc2)cc1 [NCGC00434033-01]
0.0111	Cc1cc(CNC(=O)C2CCCCn3nnnc32)c2[nH]c(-c3ccccc3)c(C)c2c1 (centres unmarked) [NCGC00434459-01]
0.00556	CC(C)Cc1noc(-c2ccc(N3CCC(O)CC3)nc2)n1 [NCGC00434953-01]
> 0.03	CN1CCN(C[C@@H]2CN(C(=O)CCCc3ccccc3)C[C@@H]2CO)CC1 [NCGC00435815-01]
0.0176	CC(C)(O)CCc1ccc(C(=O)NCCSc2ccccn2)cc1 [NCGC00435911-01]
0.00785	Cc1ncc(C(=O)NCc2ccc3[nH]c(-c4ccccc4F)c(C)c3c2)c(C)n1 [NCGC00435925-01]
0.0124	CCCc1ccc2oc(C(=O)NCCc3nncn3CC)c(C)c2c1 [NCGC00436423-01]
0.0124	Cc1ccc2cc(CN3CCN(CC(N)=O)CC3)c(-c3cccs3)nc2c1 [NCGC00436639-01]
0.00989	c1ccc(CNc2cc(-c3cc(N4CCCCC4)ncn3)c3cc[nH]c3n2)nc1 [NCGC00436665-01]
0.0124	Cc1ncc(CC(=O)NCc2ccc3[nH]c(-c4ccccc4F)c(C)c3c2)c(=O)[nH]1 [NCGC00436691-01]
> 0.03	COc1ccccc1OC1(C(=O)O)CCN(c2ncnc3[nH]cnc23)CC1 [NCGC00436727-01]
0.00624	CN(C)c1cccc(C(=O)NC2CCN(c3cc(-c4ccc(Cl)cc4)n[nH]3)CC2)c1 [NCGC00437038-01]
0.00989	Cc1c(-c2ccccc2F)[nH]c2ccc(CNC(=O)CCc3cc(O)no3)cc12 [NCGC00437347-01]
0.00624	COc1ccc(C(=O)NC2CCCN(c3cc(-c4ccc(Cl)cc4)n[nH]3)C2)cc1OC (centres unmarked) [NCGC00437414-01]
0.00495	O=C(NC1CCCN(c2cc(-c3ccc(Cl)cc3)n[nH]2)C1)c1ccc2ncccc2c1 (centres unmarked) [NCGC00437446-01]
0.0111	COc1cc(C(=O)NC2CCCN(c3cc(-c4ccc(F)cc4)n[nH]3)C2)cc(OC)c1OC (centres unmarked) [NCGC00437480-01]

SMILES	IC50 [mM]
COc1ccc(-n2cc(C3=CCN(CCN4CCOCC4)CC3)cn2)cc1 [NCGC00432106-01]	0.00989
COc1ccc2c(c1)C1(CCN(C(=O)Nc3ccc4c(c3)OCCO4)C1)C(=O)N2C (centres unmarked) [NCGC00435246-01]	0.0111
